Laboratory results from patent US20250179024A1, “AMYLOID AND ASSOCIATED PATHOLOGY MODULATORS AND METHODS THEREOF” (Jawaharlal Nehru Centre for Advanced Scientific Research, priority 2022, published 2025).

How the values were obtained:
[1] = target: T1, preformed Aβ fibrillar aggregates (Homo sapiens, UniProt P05067); experiment: Dot blot assay of dissolution of preformed Aβ fibrillar aggregates; assay type: biochemical; conditions: Aβ aggregates 10 μM; for dissolution efficiency: NMIs 20 μM, 48 h
T1 construct: is a 42 amino acid proteolytic product from the amyloid precursor protein; purchased Invitrogen
T1 sequence (P05067 672-713 limits assumed): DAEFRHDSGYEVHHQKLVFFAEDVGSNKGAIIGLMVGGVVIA
Method: Aggregation modulation by toxic Aβ aggregates were assessed and were quantified by dot blot assay. Aβ peptide (10 μM) was dissolved in phosphate buffered saline (PBS, 10 mM, pH 7.4), incubated alone and with NMIs (20 μM) at 37° C. for 48 h. For concentration dependent inhibition, 10 μM Aβ peptide was incubated with 1, 2, 5, 10 and 20 μM of NMIs and incubated. Samples for oligomer inhibition studies were prepared by incubating Aβ alone and with NMIs at 4° C. for 24 and subjected to dot blot analysis. For dissolution studies, Aβ peptide alone was incubated in PBS for 48 h to prepare fibrils and then incubated with NMIs further for 48 h. For dot blot experiment, 5 μL of sample was blotted on activated PVDF (polyvinylidene fluoride) membrane in triplicates and air dried. The membrane was blocked with skimmed milk powder for 1 h at room temperature. The blot paper was washed with tris-buffered saline with 0.01% Tween 20 (TBST) three times for 5 min. Blot paper was treated with fibril specific OC primary antibody (Rabbit, 1:1000 dilution) overnight at 4° C. For oligomers blot A11 anti-oligomer antibody (Rabbit 1:1000) was used. Blot was washed thrice with TBST and treated with HRP-conjugated antirabbit secondary antibody (1:5000 dilutions) for 1 h at room temperature. The bolt was washed thrice for 5 min with TBST and developed with ECL reagent (Biorad) and imaged with ChemiDoc BioRad gel documentation system in autoexposure mode. Blots were analyzed and quantified by ImageJ software. The fibrillar aggregates were formed by incubating Aβ peptide (10 μM) in PBS (pH 7.4) at 37° C. for 48 h. The aggregate samples were treated with NMIs (20 μM) for 48 h followed by dot blot analysis. […] These studies confirmed that M3 as the potential candidate to dissolve Aβ fibrillar aggregates to possibly nontoxic species.

SH-SY5Y cells [2] = experiment: Neuronal cell rescue from Aβ toxicity (MTT); assay type: cell-based; conditions: Aβ 10 μM
Method: Cell rescue from Aβ toxicity by NMIs were assessed in SH-SY5Y cells. The cells were seeded into 96 well plate at cell density of 25,000 cells per well and after 24 h the media was replaced with DMEM-F12 with low serum (2.5% FBS). After 6 h, cells were treated with Aβ (10 μM) alone and with NMIs (20 μM) in low serum media. Different concentrations of compound (10, 20 and 50 μM) were used to treat cells. For metal dependent studies, Aβ (10 μM) with metals (20 μM) in the absence and presence of NMIs (20 μM) was treated. The cells were incubated for 30 h and MTT assay was performed to calculate the percentage cell viability.
Compounds of the present disclosure (M1 to M4) were evaluated for their ability to rescue neuronal cells from Aβ toxicity by MTT assay.
Further, the effect of concentration of compounds of the present disclosure on the cell rescue was assessed. […] The ability of NMIs to rescue cells from metal-dependent Aβ toxicity were assessed in the presence of Cu (II) and Zn (II). Cells were treated with Aβ (10 μM) along with metal ions (20 μM) and NMIs (20 μM) for 30 h. Aβ in the presence of Cu (II) reduced cell viability to ˜62% and M3 treatment had rescued cells with viability to 85% (FIG. 12C). Aβ with Zn (II) viability reduced to ˜61% and M3 treatment rescued cells by improving the viability to ˜79% (FIG. 12D). […] These in-cellulo experiments confirmed the ability of M3 to effectively rescue neuronal cells from metal-independent and dependent Aβ toxicity.

SH-SY5Y cells [3] = experiment: In cellulo antioxidant assay, rescue from H2O2 induced cell death (MTT); assay type: cell-based; conditions: H2O2 200 μM, NMIs 20 μM, 18 h; H2O2 treated cells ~72%
Method: To assess in cellulo antioxidant activity of NMIs, rescue of neuronal cells from H2O2 induced cell death was assessed by MTT assay. The cells were seeded onto 96 well plate at seeding density of 25,000 cells per well. After 24 h cells were treated with H2O2 (200 μM) alone and with NMIs (20 μM) for 18 h. H2O2 treatment result in neuronal cell death and potent antioxidant molecule rescue cells. The cell viability was assessed by MTT assay and percentage cell viability was calculated. ABTS (λmax at 734 nm) radical scavenging assay assessed the ability of NMIs to quench nitrogen radicals (RNS). […] These in vitro experiments have established M1 and M3 as effective antioxidants and further their ability to scavenge ROS in cellulo was assessed. Treatment of cells with H2O2 was known to generate ROS and cause DNA damage, protein oxidation, lipid peroxidation and mitochondrial dysfunction, which led to cell death. The neuronal cells were treated with H2O2 (200 μM) alone and with NMIs (20 μM) for 18 h and cell viability by MTT assay. […] The production of excess ROS by Aβ results in oxidative stress and elicits stress response.

Aβ = target: T2, Aβ (Homo sapiens, UniProt P05067); experiment: AFM imaging of Aβ samples; conditions: for morphology of Aβ sample, aggregation inhibition: Aβ 10 μM, FIG. 1C
T2 construct: is a 42 amino acid proteolytic product from the amyloid precursor protein; purchased Invitrogen
T2 sequence (P05067 672-713 limits assumed): as above
Method: AFM imaging was done to understand the morphological characteristics of Aβ and NMI treated samples. The samples from Aβ aggregation inhibition and dissolution studies were used for AFM imaging. 25 μL of sample was drop-casted on freshly cleaved mica substrate. The Aβ samples were allowed to adhere to substrate surface for 15 min, washed with filtered MiliQ water and air dried. The samples were imaged in Scan assist Air mode in Bioscope resolve AFM system (Bruker). The images were processed and analyzed using NanoScope analysis software. […] It has been observed that the oligomers are a highly toxic species compared to Aβ fibrillar aggregates. The ability of NMIs (M3) to inhibit the formation of Aβ oligomers was assessed by dot blot assay. Aβ peptide (10 μM) was incubated with NMIs at 4° C. for 24 h followed by probing with A11 oligomer-specific antibody. […] Native PAGE and western blot analysis was carried out to understand the size distribution of Aβ aggregated species. […] In order to analyse the higher order aggregates not permeable in the gel matrix and the morphological characteristics, Aβ samples were subjected to atomic force microscopy (AFM) imaging.

[4] = modulators 20 μM, Aβ alone ~52%, FIG. 12A

SMILES	dissolution efficiency [1]	cell viability (SH-SY5Y cells [2]; [4])	cell viability (SH-SY5Y cells [3])	morphology of Aβ sample, aggregation inhibition (Aβ; NMIs 20 μM)	EC50 [1]	dissolution ([1]; 0.1 molar ratio)	dissolution ([1]; 0.2 molar ratio)	dissolution ([1]; 0.5 molar ratio)	dissolution ([1]; 1 molar ratio)	dissolution ([1]; 2 molar ratio)	cell viability (SH-SY5Y cells [2]; 50 μM compound, control 54%, FIG. 12B)	viability at 5 µM (SH-SY5Y cells [2]; Homo sapiens, SH-SY5Y, 5 μM compound, control 54%, FIG. 12B)	viability at 10 µM (SH-SY5Y cells [2]; Homo sapiens, SH-SY5Y, 10 μM compound, control 54%, FIG. 12B)	viability at 20 µM (SH-SY5Y cells [2]; Homo sapiens, SH-SY5Y, 20 μM compound, control 54%, FIG. 12B)	morphology of metal-dependent Aβ aggregation (Aβ; Aβ 10 μM with Cu (II) or Zn (II), NMIs 20 μM, FIGS. 1E and 1F)	morphology of preformed fibrils after treatment (Aβ; Aβ aggregates 10 μM, FIG. 4C)
CN(C)c1ccc2c3c(cccc13)C(=O)N(CCc1ccc(O)c(O)c1)C2=O [M1, 2-(3,4-dihydroxyphenethyl)-6-(dimethylamino)-1H-benzo[de]isoquinoline-1,3(2H)-dione]	~44%	lowered alleviation of the Aβ toxicity	89%	amorphous structures	–	–	–	–	–	–	–	–	–	–	–	–
O=C1c2cccc3c(N(Cc4ccccn4)Cc4ccccn4)ccc(c23)C(=O)N1CCc1ccc(O)c(O)c1 [M3, 6-(bis(pyridin-2-ylmethyl)amino)-2-(3,4-dihydroxyphenethyl)-1H-benzo[de]isoquinoline-1,3(2H)-dione]	52%	~75%	91%	amorphous structures	7.87 µM	25%	46%	48%	50%	59%	near-complete rescue	68%	70%	83%	minimal Aβ fibrils and mostly small amorphous clumps	amorphous clumps
